Measurements from US20250205195A1, “BENZYLOXY-BENZYLAMINYL AMINO ACID DERIVATIVE FOR ADJUSTING TSLP/TSLPR SIGNAL TRANSMISSION” (AMTIXBIO CO., LTD., priority 2021, published 2025).

Key:
skin-specific T cells = assay: FACS analysis of T cell fractions in skin tissue isolated from atopic dermatitis patients; type: cell-based, human; details: patient skin tissue, 16 g/mL, 8 g/mL
Source text: For tissues isolated from the skin of atopic dermatitis patients (Yonsei Severance Hospital, South Korea) followed by the treatment of the compound 27 of the present invention, T cell fractions were compared, and the results are presented in FIG. 16 (Data are shown as mean standard deviation (SD). ** P<0.01, * P<0.05).

interleukin-13 (IL-13) = assay: PMA/ionomycin-induced interleukin-13 in RBL-2H3 cells (ELISA); type: cell-based, rat; details: RBL-2H3 cells, 0, 1, 2, 4 and 8 µg/mL, 24 h
Experimental: RBL-2H3 cells were seeded at an initial density of 2×10^5 cells/well in a 24-well plate and cultured at 37° C. for 16 to 24 hours. Subsequently, compound 27 of the present invention was added to the RBL-2H3 cell culture medium at final concentrations of 0, 1, 2, 4, and 8 µg/mL, and the cells were cultured at 37° C. for 1 hour. Next, to induce interleukin-13, the culture medium was treated with PMA ([…], Sigma-Aldrich, USA) and ionomycin (Sigma-Aldrich, USA) to final concentrations of 50 ng/mL and […], respectively, and the cells were cultured for an additional 24 hours at 37° C. The culture supernatant was then collected, and the amount of induced interleukin-13 from RBL-2H3 cells was determined using an ELISA kit (R&D Systems, USA) according to the manufacturer's instructions. FIG. 2 (b) represents the results. […] This indicates the anti-inflammatory effect of compound 27 of the present invention.

[1] = system: HDM-induced atopic dermatitis mice; assay: HDM (Df cream) atopic dermatitis mouse model, skin-specific memory T cell study; type: in vivo, Nc/Nga mice
Source text: Nc/Nga mice (purchased from Central Laboratory Animal, male, 6 weeks old) were used, with 2 mice per group. The experimental animals were allowed to freely access to food and water. Mice were shaved using clippers and depilatory cream before the application of Df cream. Df cream (dermatophagoides farina cream) (Biostir AD, Biostir Incorporation) was applied to the dorsal area of the mice 3 times a week for 4 weeks to induce atopic dermatitis. After confirming lesions induced in all mice, compound 27 of the present invention was applied topically to the skin three times a week for three weeks starting four weeks after the Df cream treatment. In contrast to other examples, this example excluded the simultaneous application of the test drug (compound 27 of the present invention) and the atopic dermatitis-inducing agent during the induction period. The compound of the present invention (8 g/mL and […]) was applied to the skin in a volume of 100 μL. As a positive control, 0.1% dexamethasone was topically applied to the mouse skin for comparison.
Erythema, hemorrhage, wounds, dryness, swelling, and shedding in mice were observed visually and compared using the SCORAD score. […] FIG. 12 graphically represents the changes in the atopic dermatitis mouse model's skin scores due to the treatment with each test substance (Wilcoxon-signed rank test; P<0.05 with statistically significant three mice were examined from each group).
A mouse IgE ELISA Kit (BioLegend, San Diego, CA, USA) and a mouse DF-specific IgE ELISA Kit (BioLegend, San Diego, CA, USA) were used according to the manufacturer's instructions to measure IgE in mouse serum and mouse DF-specific IgE. Changes in the levels of total IgE and DF-specific IgE in the serum were presented in FIGS. 13 (a) and (b), respectively.
Skin tissue changes were examined using Hematoxylin and Eosin (H&E) staining (refer to FIG. 14) (Data are shown as mean±standard deviation (SD). ** P<0.01, * P<0.05). Additionally, changes in eosinophils and mouse epidermal thickness were measured (see FIG. 14).
The results of the analysis of T cell fractions in the skin of atopic dermatitis mouse models treated with compound 27 of the present invention are presented in FIGS. 16 and 17 (data are shown as mean±standard deviation (SD). ** P<0.01, * P<0.05).

[2] = system: HDM-induced atopic dermatitis mice; assay: House dust mite (HDM) atopic dermatitis mouse model, dermatitis score; type: in vivo, Nc/Nga mice; details: topical or oral, 10 days after administration, vs control group
Source text: Nc/Nga mice (Supplier: Central Animal Laboratory, South Korea, Male, 8 weeks old) were used, with 8 mice per group. The experimental animals were allowed free access to Purina Nestle feed (Switzerland) and water. The mice were shaved using clippers and depilatory cream one day (day 0) before applying Df cream (Dermatophagoides farina cream, Biostir AD, Biostir Incorporation). Df cream was applied to the mouse dorsal area twice a week for 5 weeks to induce atopic dermatitis. After confirming lesions in all mice, compound 27 of the present invention was administered topically or orally for 3 weeks (21 days) from 2 weeks after Df cream application. For topical administration, compound 27 was mixed with 100% ethanol to achieve concentrations of 0.3%, 1%, or 3%, and applied once daily. It was applied to both ears (25 μL each) and the dorsal area (70 μL). 100% ethanol was used as the topical vehicle. For oral administration, compound 27 was administered at doses of 25 mpk (once daily, QD), 50 mpk (QD), or 10 mpk (twice daily, BID). […]
Skin indicators were recorded through visual observation once a week (on days 0, 7, 14, 21, 28, and 36). […] Each item was scored as follows: no symptoms (0 points), mild symptoms (1 point), moderate symptoms (2 points), and severe symptoms (3 points). The total score was calculated by summing up scores for all items.

Question: With `CCC(NC)C(=O)NCc1ccc(OCc2ccc(C(F)(F)F)cc2)cc1` (racemic) [Compound 27, (R)/(S)-2-(methylamino)-N-(4-((4-trifluoromethyl)benzyl)oxy)benzyl)butanamide] as the compound, how does the “CD69+ T cells and CD103+ T cells” value (skin-specific T cells) read?
Answer: remarkable reduction

Question: What about the “proportion of skin-specific T cells” value (skin-specific T cells) of the same compound?
Answer: concentration-dependent significant decrease

Question: And the “amount of induced interleukin-13” value (interleukin-13 (IL-13))?
Answer: decreased proportionally

Question: What about the “proportion of skin-specific T cells (CD3+, CD4+, CD69+, CD103+)” value ([1]; FACS of mouse skin, 16 g/mL, 8 g/mL) of the same compound?
Answer: concentration-dependent significant decrease

Question: What about the “numbers of CD69+ T cells and CD103+ T cells” value ([1]; FACS of mouse skin, vs 0.1% dexamethasone) of the same compound?
Answer: statistically significant decrease

Question: And the “eosinophil count in skin tissue” value ([1]; H&E staining, topical)?
Answer: concentration-dependent decrease

Question: And the epidermal thickness ([1]; H&E staining, with increasing drug concentration)?
Answer: appeared to thin

Question: What about the “atopic dermatitis symptoms (skin scores, FIG. 12)” value ([1]; […], 8 g/mL topical) of the same compound?
Answer: improved atopic dermatitis symptoms in a concentration-dependent manner

Question: And the “erythema, hemorrhage, dryness, wounds, swelling and shedding (visual, SCORAD)” value ([1]; topical, three times a week for three weeks, compound vs 0.1% dexamethasone positive control)?
Answer: significant reduction

Question: What about the “improvement of skin lesions (Modified SCORAD score)” value [2] of the same compound?
Answer: superior effect
